Activity calls are given as the source filed them.
Key:
[1] = HEK-293T cell viability reduction – luminescence, B-cell screen hits, cytotoxicity control for BCR NF-kB inhibitor project, dose response (AID 489021); type: functional, cell-based;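 further: HEK-293T cells carrying an NF-kB luciferase reporter; cells exposed to compound for about 14 hours before viability readout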
Cytochrome P450 2C19 = Cytochrome P450 2C19 (Homo sapiens, UniProt P33261); assay: Cytochrome panel assay with activity outcomes. Panel member name: p450-cyp2c19 Compounds with AC50 equal or less than 10 uM are considered active; type: functional
Sequence of Cytochrome P450 2C19 (P33261 whole entry): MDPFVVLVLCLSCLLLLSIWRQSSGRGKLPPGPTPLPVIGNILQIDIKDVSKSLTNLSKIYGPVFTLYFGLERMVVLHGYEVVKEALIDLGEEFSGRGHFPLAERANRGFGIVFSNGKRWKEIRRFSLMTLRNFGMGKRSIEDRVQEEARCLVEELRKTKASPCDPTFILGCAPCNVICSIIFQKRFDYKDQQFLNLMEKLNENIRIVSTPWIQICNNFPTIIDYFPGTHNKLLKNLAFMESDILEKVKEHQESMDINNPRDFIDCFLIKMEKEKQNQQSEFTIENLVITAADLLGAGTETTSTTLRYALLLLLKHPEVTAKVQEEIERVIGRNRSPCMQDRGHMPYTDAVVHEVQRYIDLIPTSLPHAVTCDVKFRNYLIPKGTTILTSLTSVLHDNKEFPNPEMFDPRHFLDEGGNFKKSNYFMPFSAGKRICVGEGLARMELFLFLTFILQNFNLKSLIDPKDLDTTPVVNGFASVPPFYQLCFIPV

Cytochrome P450 2C9 = Cytochrome P450 2C9 (Homo sapiens, UniProt P11712)
Sequence of Cytochrome P450 2C9 (P11712 whole entry): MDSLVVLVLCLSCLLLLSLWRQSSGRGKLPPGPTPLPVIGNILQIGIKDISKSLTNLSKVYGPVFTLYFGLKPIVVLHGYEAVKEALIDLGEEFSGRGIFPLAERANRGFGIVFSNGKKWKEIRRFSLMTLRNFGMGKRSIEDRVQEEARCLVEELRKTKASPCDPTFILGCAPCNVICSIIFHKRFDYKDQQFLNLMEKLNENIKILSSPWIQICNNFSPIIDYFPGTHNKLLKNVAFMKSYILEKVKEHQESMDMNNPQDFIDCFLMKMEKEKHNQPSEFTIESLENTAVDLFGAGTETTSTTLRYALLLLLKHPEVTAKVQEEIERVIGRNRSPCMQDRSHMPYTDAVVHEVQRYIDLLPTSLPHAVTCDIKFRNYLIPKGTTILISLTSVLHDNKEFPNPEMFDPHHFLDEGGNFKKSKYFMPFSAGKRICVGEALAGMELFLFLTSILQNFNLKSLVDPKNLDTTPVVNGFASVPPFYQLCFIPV

[2] = viability of PTEN-deleted HCT116 cells – cell-based, HCT116 PTEN knockout, dose response (AID 1047); type: functional;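 further: HCT116 colon tumor cells with PTEN knocked out; cells exposed to compound for 60 hours before readout; potency for loss of cell viability measured by luminescence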
[3] = viability of HCT116 lacking mutant beta-catenin – cell-based, human colon tumor, dose response (AID 1045); type: functional;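 further: HCT116 colon tumor cells with beta catenin knocked out; cells exposed to compound for 60 hours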
[4] = Luminescence Cell-Based Dose Retest to Confirm Inhibitors of Cancer Stem Cells. [Related pubchem assays (depositor defined):AID2717, AID2721]; type: functional; settings: Homo sapiens
X-box-binding protein 1 = target: T1, X-box-binding protein 1 (Homo sapiens, UniProt P17861); type: functional, Cricetulus griseus;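 further: confirmatory dose-response counter-screen serving a CHOP assay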
T1 sequence (P17861 whole entry): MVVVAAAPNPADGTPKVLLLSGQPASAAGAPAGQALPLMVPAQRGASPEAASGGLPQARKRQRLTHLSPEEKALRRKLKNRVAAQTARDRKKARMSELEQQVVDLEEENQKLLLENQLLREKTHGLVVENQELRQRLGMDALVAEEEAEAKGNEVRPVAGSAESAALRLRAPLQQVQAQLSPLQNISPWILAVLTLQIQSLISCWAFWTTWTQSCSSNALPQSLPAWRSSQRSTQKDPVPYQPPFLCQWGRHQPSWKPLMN

INS1 = assay: INS-1E survival protection against cytokine death – cell-based, luminescence, retest, dose response (AID 449756); type: functional; settings: Rattus norvegicus;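 further: cell death triggered by IL-1 beta plus TNF-alpha plus IFN-gamma mixture; protective hits raise ATP signal compared with cytokine alone wells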
HEK293 = assay: Fluorescence-based counterscreen for potentiators or agonists of NPY-Y2: cell-based high-throughput dose response assay to identify inhibitors of cyclic nucleotide gated ion channel (CNGC) activity. In this assay, the parental HEK293 cell line transfected with a cyclic-nucleotide gated ion channel (CNGC)-based cAMP sensor is used to measure inhibition of isoproterenol-induced CNGC activity by test compound.; type: functional; settings: Homo sapiens
[5] = tested on: Streptococcus sp. 'group A'; assay: Streptococcus pyogenes SK(-)GAS viability under kanamycin – luminescence, BacTiterGlo, confirmation, counter-screen for streptokinase expression inhibitor project, dose response (AID 1900); type: functional, organism-based
[6] = target: T2, Neuropeptide Y receptor type 2 (Homo sapiens, UniProt P49146); assay: Fluorescence-based cell-based high-throughput dose response assay for agonists of NPY-Y2. [Related pubchem assays: 1703 (Screening assay (CNGC inhibitors).), 1359 (Screening assay (NPY-Y2 potentiators or agonists).), 1304 (Screening assay (NPY-Y1 potentiators or agonists).), 1710 (Screening assay (NPY-Y2 agonists).), 1791 (Summary AID.)]; type: functional
T2 sequence (P49146 whole entry): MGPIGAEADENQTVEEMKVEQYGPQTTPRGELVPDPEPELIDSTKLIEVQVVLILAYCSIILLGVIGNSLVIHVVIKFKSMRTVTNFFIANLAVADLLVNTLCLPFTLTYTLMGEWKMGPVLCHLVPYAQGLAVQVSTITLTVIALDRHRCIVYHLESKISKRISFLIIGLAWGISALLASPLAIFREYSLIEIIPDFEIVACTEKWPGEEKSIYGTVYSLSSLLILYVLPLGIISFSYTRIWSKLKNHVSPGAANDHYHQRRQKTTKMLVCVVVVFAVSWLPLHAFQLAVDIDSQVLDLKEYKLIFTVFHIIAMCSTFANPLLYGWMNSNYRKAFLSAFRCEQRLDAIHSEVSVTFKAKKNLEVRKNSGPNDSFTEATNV

Streptokinase A = target: T3, Streptokinase A (Streptococcus pyogenes serotype M1, UniProt P10520); assay: viability-normalized secreted streptokinase activity reduction – plasminogen activation absorbance, OD405, dose response (AID 1914); type: functional, Streptococcus pyogenes M1 GAS;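 further: secreted streptokinase activity via plasminogen activation per viability signal from cell pellet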
T3 sequence (P10520 whole entry): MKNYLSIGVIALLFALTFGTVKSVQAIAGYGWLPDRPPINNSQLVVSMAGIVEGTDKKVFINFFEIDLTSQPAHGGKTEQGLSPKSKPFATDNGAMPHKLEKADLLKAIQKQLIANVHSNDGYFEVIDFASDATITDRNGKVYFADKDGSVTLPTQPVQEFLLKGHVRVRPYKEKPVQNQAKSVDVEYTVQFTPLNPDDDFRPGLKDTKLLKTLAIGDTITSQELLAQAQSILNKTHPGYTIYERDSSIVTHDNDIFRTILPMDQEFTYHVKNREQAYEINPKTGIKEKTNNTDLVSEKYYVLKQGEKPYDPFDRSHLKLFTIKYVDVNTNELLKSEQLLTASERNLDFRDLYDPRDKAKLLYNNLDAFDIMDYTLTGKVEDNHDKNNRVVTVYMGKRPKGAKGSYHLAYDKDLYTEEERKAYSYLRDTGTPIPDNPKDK

[7] = target: T4, Neuropeptide Y receptor type 1 (Homo sapiens, UniProt P25929); assay: Fluorescence-based counterscreen for agonists of NPY-Y2: cell-based high-throughput dose response assay for agonists of NPY-Y1.; type: functional
T4 sequence (P25929 whole entry): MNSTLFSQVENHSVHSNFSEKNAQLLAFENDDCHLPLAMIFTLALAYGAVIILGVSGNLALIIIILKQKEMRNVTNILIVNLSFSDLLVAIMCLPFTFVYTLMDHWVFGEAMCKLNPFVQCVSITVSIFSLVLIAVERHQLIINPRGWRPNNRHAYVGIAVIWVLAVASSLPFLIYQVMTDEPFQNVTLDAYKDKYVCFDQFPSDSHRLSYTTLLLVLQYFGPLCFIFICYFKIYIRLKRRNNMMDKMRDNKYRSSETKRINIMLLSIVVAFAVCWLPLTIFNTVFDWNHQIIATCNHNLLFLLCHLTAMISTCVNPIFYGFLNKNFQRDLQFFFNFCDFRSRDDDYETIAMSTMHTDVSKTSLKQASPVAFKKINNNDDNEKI

Streptococcus = assay: GAS UMAA2166 growth inhibition – luminescence, BacTiterGlo, counter-screen for streptokinase expression inhibitor project, dose response (AID 1915); type: functional, organism-based;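 further: potency for reduction of bacterial viability or growth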
[8] = target: Eukaryotic translation initiation factor 4H (Homo sapiens, UniProt Q15056); assay: eIF4H binding inhibition – biochemical, uHTS, fluorescence polarization, translation initiation inhibitor project, primary screen (AID 2012)
[9] = target: Polyadenylate-binding protein 1 (Homo sapiens, UniProt P11940); assay: blockers of PABP interaction with poly(A) – biochemical, fluorescence polarization, […] (AID 2014)
[10] = target: DNA dC->dU-editing enzyme APOBEC-3A (Homo sapiens, UniProt P31941); assay: Dose Response confirmation of small molecule APOBEC3A DNA Deaminase Inhibitors via a fluorescence-based single-stranded DNA deaminase assay. [Related pubchem assays (depositor defined):AID493011, AID493024]; type: functional
Sequence of DNA dC->dU-editing enzyme APOBEC-3A (P31941 whole entry): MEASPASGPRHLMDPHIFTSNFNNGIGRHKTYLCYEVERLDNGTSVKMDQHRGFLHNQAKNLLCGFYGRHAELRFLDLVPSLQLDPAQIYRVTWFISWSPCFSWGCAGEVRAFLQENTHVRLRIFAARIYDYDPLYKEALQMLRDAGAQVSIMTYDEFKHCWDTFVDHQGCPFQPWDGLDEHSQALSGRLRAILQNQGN

[11] = target: T5, DNA dC->dU-editing enzyme APOBEC-3G (Homo sapiens, UniProt Q9HC16); type: functional
T5 sequence (Q9HC16 whole entry): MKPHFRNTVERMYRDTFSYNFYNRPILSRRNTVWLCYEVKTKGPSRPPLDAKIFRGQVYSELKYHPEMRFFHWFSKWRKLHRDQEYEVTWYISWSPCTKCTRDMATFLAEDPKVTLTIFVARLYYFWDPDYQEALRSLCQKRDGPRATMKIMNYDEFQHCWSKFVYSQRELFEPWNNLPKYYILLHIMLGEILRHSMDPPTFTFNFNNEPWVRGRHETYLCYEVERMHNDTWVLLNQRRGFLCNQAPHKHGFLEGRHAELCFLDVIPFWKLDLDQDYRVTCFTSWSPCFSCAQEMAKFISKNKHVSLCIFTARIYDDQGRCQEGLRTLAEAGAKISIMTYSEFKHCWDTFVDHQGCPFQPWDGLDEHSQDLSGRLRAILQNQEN

[12] = target: T5, DNA dC->dU-editing enzyme APOBEC-3G; assay: Dose Response confirmation of small molecule APOBEC3G DNA Deaminase Inhibitors via a fluorescence-based single-stranded DNA deaminase assay. [Related pubchem assays (depositor defined):AID493012, AID493028]; type: functional
[13] = target: T6, C-C chemokine receptor type 6 (Homo sapiens, UniProt P51684); assay: antagonism of CCR6 beta-arrestin recruitment – cell-based, luminescent beta-arrestin readout, dose response (AID 504728); type: functional
T6 sequence (P51684 whole entry): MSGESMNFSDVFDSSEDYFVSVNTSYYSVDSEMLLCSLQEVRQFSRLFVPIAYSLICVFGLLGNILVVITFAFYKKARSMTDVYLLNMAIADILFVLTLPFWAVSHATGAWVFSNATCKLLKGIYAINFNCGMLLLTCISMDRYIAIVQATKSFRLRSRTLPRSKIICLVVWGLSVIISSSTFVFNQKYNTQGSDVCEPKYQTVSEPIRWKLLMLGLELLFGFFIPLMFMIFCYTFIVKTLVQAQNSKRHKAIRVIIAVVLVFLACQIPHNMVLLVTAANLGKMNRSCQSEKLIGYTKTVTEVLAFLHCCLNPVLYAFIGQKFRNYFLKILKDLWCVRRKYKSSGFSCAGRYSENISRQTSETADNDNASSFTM

Beta-galactosidase = Beta-galactosidase (Escherichia coli, UniProt Q8VNN2); assay: detection-enzyme interference by beta-gal modulators – biochemical, E. coli enzyme, set 3, artefact control for CCR6 antagonist project, dose response (AID 504712); type: functional
Sequence of Beta-galactosidase (Q8VNN2 whole entry): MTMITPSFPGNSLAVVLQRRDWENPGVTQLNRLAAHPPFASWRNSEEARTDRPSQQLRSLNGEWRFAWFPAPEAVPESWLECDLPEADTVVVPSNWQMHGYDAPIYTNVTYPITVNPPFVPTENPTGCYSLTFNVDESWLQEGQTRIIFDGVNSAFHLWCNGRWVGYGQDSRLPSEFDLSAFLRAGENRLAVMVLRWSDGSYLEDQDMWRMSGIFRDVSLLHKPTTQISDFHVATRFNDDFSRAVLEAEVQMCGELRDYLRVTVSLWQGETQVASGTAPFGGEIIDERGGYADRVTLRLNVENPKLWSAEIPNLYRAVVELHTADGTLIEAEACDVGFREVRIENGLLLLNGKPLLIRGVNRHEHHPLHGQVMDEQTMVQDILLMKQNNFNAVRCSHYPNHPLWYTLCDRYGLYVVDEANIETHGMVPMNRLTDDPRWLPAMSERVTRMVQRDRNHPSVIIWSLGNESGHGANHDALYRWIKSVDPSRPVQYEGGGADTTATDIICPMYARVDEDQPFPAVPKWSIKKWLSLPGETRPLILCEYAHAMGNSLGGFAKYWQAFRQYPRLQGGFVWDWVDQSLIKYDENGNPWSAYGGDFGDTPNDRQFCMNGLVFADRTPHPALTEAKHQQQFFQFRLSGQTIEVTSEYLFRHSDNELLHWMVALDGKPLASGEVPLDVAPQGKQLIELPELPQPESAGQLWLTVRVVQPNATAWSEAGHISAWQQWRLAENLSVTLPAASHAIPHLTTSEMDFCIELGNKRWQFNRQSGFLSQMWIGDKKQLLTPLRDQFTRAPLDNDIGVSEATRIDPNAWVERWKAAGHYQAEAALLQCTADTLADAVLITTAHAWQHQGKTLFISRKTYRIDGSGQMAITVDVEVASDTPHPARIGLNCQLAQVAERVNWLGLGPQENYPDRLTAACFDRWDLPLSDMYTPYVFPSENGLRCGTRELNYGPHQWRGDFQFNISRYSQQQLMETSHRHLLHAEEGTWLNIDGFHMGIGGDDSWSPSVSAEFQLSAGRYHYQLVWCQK

Large T antigen = Large T antigen (Simian virus 40, UniProt P03070); type: functional, Betapolyomavirus macacae;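 further: Confirmatory-stage PubChem screen for compounds that inhibit SV40 T antigen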
Sequence of Large T antigen (P03070 whole entry): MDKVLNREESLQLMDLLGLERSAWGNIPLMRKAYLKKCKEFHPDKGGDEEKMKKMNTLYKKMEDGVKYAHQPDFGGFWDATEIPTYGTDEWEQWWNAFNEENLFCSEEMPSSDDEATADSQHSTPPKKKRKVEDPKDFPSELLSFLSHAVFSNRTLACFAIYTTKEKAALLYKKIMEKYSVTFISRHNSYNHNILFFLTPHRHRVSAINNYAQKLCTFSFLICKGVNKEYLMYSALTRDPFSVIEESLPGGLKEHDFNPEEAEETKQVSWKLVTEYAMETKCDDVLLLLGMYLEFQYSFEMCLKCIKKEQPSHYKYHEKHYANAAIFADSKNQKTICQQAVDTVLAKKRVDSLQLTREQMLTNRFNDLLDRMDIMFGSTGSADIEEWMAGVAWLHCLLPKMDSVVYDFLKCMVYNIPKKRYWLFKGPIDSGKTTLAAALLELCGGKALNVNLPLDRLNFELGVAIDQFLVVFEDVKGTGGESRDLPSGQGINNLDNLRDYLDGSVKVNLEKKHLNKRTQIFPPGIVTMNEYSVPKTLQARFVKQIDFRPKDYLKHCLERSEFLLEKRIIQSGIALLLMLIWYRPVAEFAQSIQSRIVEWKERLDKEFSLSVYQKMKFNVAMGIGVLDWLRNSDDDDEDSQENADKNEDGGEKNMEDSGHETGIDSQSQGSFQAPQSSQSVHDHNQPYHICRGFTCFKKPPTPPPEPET

Hexokinase HKDC1 = target: T7, Hexokinase HKDC1 (Homo sapiens, UniProt Q2TB90); assay: inhibition of HKDC1 glucose phosphorylation – biochemical, W721R variant, dose response (AID 504729); type: functional
T7 sequence (Q2TB90 whole entry): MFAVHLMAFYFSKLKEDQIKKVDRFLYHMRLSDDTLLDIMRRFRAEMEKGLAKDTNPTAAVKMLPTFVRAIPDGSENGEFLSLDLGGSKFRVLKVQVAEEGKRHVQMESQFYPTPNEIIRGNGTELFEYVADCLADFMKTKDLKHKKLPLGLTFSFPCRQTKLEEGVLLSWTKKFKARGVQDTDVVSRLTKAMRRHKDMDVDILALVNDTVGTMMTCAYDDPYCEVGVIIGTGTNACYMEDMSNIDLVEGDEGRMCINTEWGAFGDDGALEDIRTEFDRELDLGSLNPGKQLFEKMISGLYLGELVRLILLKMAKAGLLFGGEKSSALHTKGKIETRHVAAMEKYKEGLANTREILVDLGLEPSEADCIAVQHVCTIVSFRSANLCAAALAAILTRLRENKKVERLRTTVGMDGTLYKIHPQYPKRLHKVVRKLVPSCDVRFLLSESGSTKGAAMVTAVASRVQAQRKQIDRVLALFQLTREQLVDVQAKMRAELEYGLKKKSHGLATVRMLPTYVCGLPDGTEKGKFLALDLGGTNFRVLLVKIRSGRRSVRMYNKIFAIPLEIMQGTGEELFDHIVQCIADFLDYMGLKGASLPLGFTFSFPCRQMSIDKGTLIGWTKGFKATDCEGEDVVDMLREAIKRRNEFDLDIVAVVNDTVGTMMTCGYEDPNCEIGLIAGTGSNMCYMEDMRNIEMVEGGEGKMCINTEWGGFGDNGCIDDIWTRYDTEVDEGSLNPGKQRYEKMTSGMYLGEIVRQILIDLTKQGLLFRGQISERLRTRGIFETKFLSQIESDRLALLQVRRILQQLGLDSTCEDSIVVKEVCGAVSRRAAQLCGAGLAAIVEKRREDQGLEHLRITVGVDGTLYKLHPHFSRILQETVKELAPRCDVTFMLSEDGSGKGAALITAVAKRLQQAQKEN

cells [14] = type: functional, cell-based
cells [15] = type: functional, cell-based; remark: listed apart in the source
Nonstructural protein 1 = Nonstructural protein 1 (Influenza A virus, UniProt Q194T2); type: functional, Influenza A virus (A/California/07/2009(H1N1))
Sequence of Nonstructural protein 1 (Q194T2 whole entry): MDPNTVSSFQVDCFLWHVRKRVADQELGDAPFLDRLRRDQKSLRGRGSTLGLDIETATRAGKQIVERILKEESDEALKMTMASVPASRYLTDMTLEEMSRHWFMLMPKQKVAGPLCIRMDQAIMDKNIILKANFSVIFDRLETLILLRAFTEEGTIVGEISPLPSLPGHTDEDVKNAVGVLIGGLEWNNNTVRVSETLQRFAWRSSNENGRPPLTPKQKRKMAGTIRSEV

[16] = target: Heat shock protein HSP 90-alpha (Homo sapiens, UniProt P07900); type: functional, organism-based
[17] = target: Disintegrin and metalloproteinase domain-containing protein 17 (Homo sapiens, UniProt P78536); assay: inhibition of ADAM17 substrate cleavage – biochemical, quenched FRET substrate, counter-screen for ADAM10 exosite inhibitor project, dose response (AID 743253)
Sequence of Disintegrin and metalloproteinase domain-containing protein 17 (P78536 whole entry, the tested form may be a part): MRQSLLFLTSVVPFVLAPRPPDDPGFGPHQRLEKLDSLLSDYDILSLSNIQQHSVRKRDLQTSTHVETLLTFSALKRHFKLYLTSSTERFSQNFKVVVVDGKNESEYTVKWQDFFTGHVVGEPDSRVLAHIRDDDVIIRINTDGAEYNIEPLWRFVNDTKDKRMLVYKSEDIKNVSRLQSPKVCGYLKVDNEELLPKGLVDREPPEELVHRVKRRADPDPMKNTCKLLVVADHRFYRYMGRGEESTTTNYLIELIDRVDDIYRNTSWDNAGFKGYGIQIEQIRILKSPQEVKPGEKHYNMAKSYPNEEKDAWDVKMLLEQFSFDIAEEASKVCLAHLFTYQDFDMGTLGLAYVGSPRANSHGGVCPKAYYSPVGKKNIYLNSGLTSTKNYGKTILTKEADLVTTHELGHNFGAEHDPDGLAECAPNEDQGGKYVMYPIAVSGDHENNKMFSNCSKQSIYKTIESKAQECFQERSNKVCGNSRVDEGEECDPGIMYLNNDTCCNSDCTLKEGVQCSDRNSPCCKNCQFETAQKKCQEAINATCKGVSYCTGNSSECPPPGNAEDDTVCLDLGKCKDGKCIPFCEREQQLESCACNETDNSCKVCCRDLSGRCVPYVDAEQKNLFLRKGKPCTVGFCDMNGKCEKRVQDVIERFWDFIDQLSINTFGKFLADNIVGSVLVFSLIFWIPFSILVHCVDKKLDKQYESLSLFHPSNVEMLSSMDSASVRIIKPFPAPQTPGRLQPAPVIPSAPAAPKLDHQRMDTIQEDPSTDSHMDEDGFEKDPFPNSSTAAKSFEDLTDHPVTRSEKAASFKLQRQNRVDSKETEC

## Cc1ccc(-c2nn3c(C)nnc3c3ccccc23)cc1S(=O)(=O)NCCN1CCOCC1
[1]
  IC50: > 80 µM (inactive)
Cytochrome P450 2C19
  AC50: inconclusive
Cytochrome P450 2C9
  AC50: 20 µM (inconclusive)

## Cc1ccc(S(=O)(=O)Nc2ccc(NC(=O)Nc3cccc(C(F)(F)F)c3)cc2)cc1
[2]
  EC50: 9.49 µM (active)
[3]
  EC50: 12.9 µM (active)
[4]
  AC50: 1.36 µM (active)
X-box-binding protein 1
  Absolute IC50 (XBP1): 10 µM
INS1
  AC50: 8.16 µM (active)

## COCCCN1C(=O)/C(=C\c2nc(C#N)c(Nc3ccc(C)cc3)o2)SC1=S
HEK293
  EC50: > 35.4 µM (not active)
[5]
  EC50: 108 µM (active)
[6]
  EC50: > 35.4 µM (not active)
Streptokinase A
  EC50: > 150 µM (not active)
[7]
  EC50: > 35.4 µM (not active)
Streptococcus
  EC50: > 150 µM (not active)

## CCn1c(=O)c2cc(C(=O)NCc3cccs3)sc2c2ccccc21
[1]
  IC50: > 80 µM (inactive)

## COc1ccc(C(=O)Nc2ccc(OC)c([N+](=O)[O-])c2)cc1Br
[1]
  IC50: > 80 µM (inactive)

## C[n+]1ccc(-c2ccncc2)cc1
[8]
  IC50: 82.2 µM (active)
[9]
  IC50: 7.33 µM (active)
[10]
  IC50: 2.02 µM (active)
[11]
  IC50: 2.53 µM (active)

## Nc1c(N(C(=O)Nc2ccc(Cl)c(Cl)c2)C2CCCC2)c(=O)[nH]c(=O)n1Cc1ccccc1
[2]
  EC50: 15.5 µM (active)
[3]
  EC50: 15.3 µM (active)
X-box-binding protein 1
  Absolute IC50 (XBP1): 10 µM

## COC(=O)/C(=C(/F)Sc1cc(C)c(O)c(C)c1)C(F)(F)F
X-box-binding protein 1
  Absolute IC50 (XBP1): 10 µM

## CCOC(=O)c1sc(NC(=O)C(C)C)c(C#N)c1C
[12]
  IC50: 39.3 µM (active)

## CN(CC(=O)Nc1ccc(OC(F)F)cc1)S(=O)(=O)/C=C/c1ccccc1
[13]
  IC50: > 66.6 µM (inactive)
Beta-galactosidase
  IC50: > 66.6 µM (inactive)

## CC[C@H](C)/C=C(C)/C=C/C1=CC2=C(Cl)C(=O)[C@@](C)(OC(C)=O)C(=O)C2=CO1
Large T antigen
  IC50: 30.4 µM (active)
Hexokinase HKDC1
  IC50: 16.8 µM (active)

## O=[N+]([O-])c1ccc(O)c(/C=N/Nc2ccccn2)c1
Cells [14]
  EC50: > 350 µM (not active)
Cells [15]
  EC50: > 350 µM (not active)
[13]
  IC50: > 66.6 µM (inactive)
Beta-galactosidase
  IC50: > 66.6 µM (inactive)
Nonstructural protein 1
  IC50: 7.05 µM (active)
[16]
  AC50: 3.97 µM (active)
INS1
  AC50: 0.342 µM (active)
[17]
  IC50: 9.75 µM (active)
